Source: patent publication US20070021441A1 (priority 2003, published 2007)
Read-outs that look alike come from different tables or passages of the source.

Tested on: Pyricularia oryzae
Assay type: in vivo
Details: individual active compound, protective, inoculated next day, assessed after 6 days

## C[C@H](Nc1c(-c2c(F)cc(F)cc2F)c(Cl)nc2ncnn12)C(F)(F)F [B]
16 ppm in the spray liquor
  Efficacy in % of the untreated control: 48%
63 ppm in the spray liquor
  Efficacy in % of the untreated control: 61%

## CC1CCN(c2c(-c3c(F)cc(F)cc3F)c(Cl)nc3ncnn23)CC1 [compound I, 5-chloro-7-(4-methylpiperidin-1-yl)-6-(2,4,6-trifluorophenyl)[1,2,4]triazolo[1,5-a]pyrimidine]
16 ppm in the spray liquor
  Efficacy in % of the untreated control: 21%
63 ppm in the spray liquor
  Efficacy in % of the untreated control: 48%

## CC1CCN(c2c(-c3c(F)cccc3Cl)c(Cl)nc3ncnn23)CC1 [A]
16 ppm in the spray liquor
  Efficacy in % of the untreated control: 35%
63 ppm in the spray liquor
  Efficacy in % of the untreated control: 61%

## O=C1c2ccccc2C(=O)N1SC(Cl)(Cl)Cl [IIb, 2-trichloromethylsulfanylisoindole-1,3-dione]
16 ppm in the spray liquor
  Efficacy in % of the untreated control: 0%
63 ppm in the spray liquor
  Efficacy in % of the untreated control: 8%

## O=C1C2CC=CCC2C(=O)N1SC(Cl)(Cl)Cl (stereo not shown) [IIa, 2-trichloromethylsulfanyl-3a,4,7,7a-tetrahydroisoindole-1,3-dione]
16 ppm in the spray liquor
  Efficacy in % of the untreated control: 0%
63 ppm in the spray liquor
  Efficacy in % of the untreated control: 35%
